How the values were obtained:
Format in all cases: cell-based
[1] = test system: reconstructed human epidermises; assay: Determination of polyunsaturated fatty acids (PUFAs) in reconstructed epidermises (GC/MS), Example 2; conditions: Lactic acid 0.6%
Procedure: (§1) Reconstructed human epidermises were obtained from the keratinocytes of a donor using the method derived from Poumay et al. (Arch Dermatol Res 2004; 296:203-11). After 2 days of immersion culture, the reconstructed human epidermises were cultured at the air/liquid interface for 10 days.
(§2) Screening of polyunsaturated fatty acids (PUFAs) expressed by the epidermis was carried out by GC/MS analysis of samples obtained after grinding the epidermises (n=2).
(§3) The amounts were normalized by C16:0 (palmitic acid), which is representative of the overall lipid content of the epidermis.

[2] = test system: reconstructed Sensitive Skin model (reconstructed human epidermises treated with 0.6% lactic acid); assay: Determinations of released inflammatory mediators (ELISA) in reconstructed Sensitive Skin model, Example 3
Procedure: (§4) Reconstructed human epidermises were obtained from the keratinocytes of a […] donor using the method derived from Poumay et al. (Arch Dermatol Res 2004; 296:203-11). After 2 days of immersion culture, the reconstructed human epidermises were cultured at the air/liquid interface for 10 days.
(§5) Epidermises at differentiation day 10 was treated or not (control) systemically with the test compounds and incubated for 24 hours.
(§6) The amount of inflammatory mediators IL-1alpha (IL1α), IL-8 and PGE2 present in skin culture supernatants was evaluated using ELISA kits (R&D Systems). • Evaluations of intracellular inflammatory markers IL-1α, IL8 and IL1-RA (n=2)

[3] = test system: reconstructed Sensitive Skin model (reconstructed human epidermises treated with 0.6% lactic acid); assay: Determination of PUFAs (GC/MS) in reconstructed Sensitive Skin model, Example 3
Procedure: as §2, §3, §4, §5
(§7) Same protocol as described in Example 2. • Determination of Poly-Unsaturated Fatty Acids (PUFAs) (n=2)
Same protocol as described in Example 2.

[4] = test system: reconstructed human epidermises; assay: Viability of reconstructed epidermises (MTT); conditions: Lactic acid 0.6% topical, 48 h; control 100%; donor
Procedure: as §1
The viability of the epidermises was assessed by an MTT metabolism test (n=2). The optical density (OD) at 540 nm is proportional to the amount of living cells and their metabolic activity.

[5] = test system: reconstructed human epidermises; assay: Intracellular determinations of inflammatory markers (ELISA), Example 2; conditions: Lactic acid 0.6%
Procedure: as §1
(§8) Intracellular amounts of IL-1α, IL8 and IL1-RA were determined by ELISA (R&D Systems) in ground epidermis (n=2).

[6] = test system: reconstructed human epidermises; assay: Immunolabeling of involucrin in reconstructed epidermis; conditions: Lactic acid 0.6%; fluorescence intensity vs. control
Procedure: Reconstructed human epidermises were obtained from the keratinocytes of a donor using the method derived from Poumay et al. (Arch Dermatol Res 2004; 296:203-11). After 2 days of immersion culture, the reconstructed human epidermises were cultured at the air/liquid interface for 10 days. […] On the other hand, involucrin was stained by immunofluorescence (Alexa-488; green dye), the nuclei were stained by propidium iodide (red dye). The involucrin staining was quantified by measuring the fluorescence intensity reported on the surface of the living layers of the epidermis.

[7] = test system: reconstructed Sensitive Skin model (reconstructed human epidermises treated with 0.6% lactic acid); assay: Intracellular measurements of inflammatory mediators (ELISA) in reconstructed Sensitive Skin model, Example 3
Procedure: as §8, §4, §5, §6, §7

[8] = test system: reconstructed human epidermises; assay: Determinations of released inflammatory markers, Example 2; conditions: Lactic acid 0.6%
Procedure: Reconstructed human epidermises were obtained from the keratinocytes of a donor using the method derived from Poumay et al. (Arch Dermatol Res 2004; 296:203-11). After 2 days of immersion culture, the reconstructed human epidermises were cultured at the air/liquid interface for 10 days. […] The amount of inflammatory markers present in culture supernatants was assessed (n=6) using CBA kits (BD Biosciences) for IL-1 alpha (IL1α) and IL-8; and ELISA kits for VEGF (R&D Systems) and PGE2 (Enzo).

[9] = test system: reconstructed human epidermises; assay: Gene expression in reconstructed epidermises (qRT-PCR); conditions: Lactic acid 0.6%; control = 100
Procedure: Reconstructed human epidermises were obtained from the keratinocytes of a donor using the method derived from Poumay et al. (Arch Dermatol Res 2004; 296:203-11). After 2 days of immersion culture, the reconstructed human epidermises were cultured at the air/liquid interface for 10 days. […] Gene expression of inflammatory markers and of markers of innate immunity and defense was evaluated by real-time quantitative PCR (qRT-PCR) on messenger RNAs extracted from epidermis (n=2). Gene expression of the innate immunity and defense markers, beta-defensin 2 hBD2, or Toll-like receptor 2, was also evaluated in the same way. The gene expression analysis was performed in duplicate using a PCR array. The quantitative analysis of gene expression was based on the analysis of threshold cycles; relative expression (RE) was expressed in arbitrary units according to the following formula: RE=(½ number of cycles)×10^6

[10] = Lactic acid 0.6%, change vs. control

In the case of `CC(O)C(=O)O` (stereo not shown) [Lactic acid, lactic acid], the “C18:1 Change vs. control” value [1] was “+20%”, the “C18:1 amount normalized to C16:0” value [1] was 0.226 and the “C18:2 LA Change vs. control” value [1] was “+19%”. For the same compound, the “C18:2 LA amount normalized to C16:0” value [1] was 0.216, the “C20:4 AA Change vs. control” value [1] was “+42%” and the “C20:4 AA amount normalized to C16:0” value [1] was 0.050. The “Released IL1-alpha Mean ± Standard deviation” value ([2]; Lactic acid 0.6% topical, 48 h) was 68 ± 34 pg/mL, the “Released IL8 Mean ± Standard deviation” value ([2]; Lactic acid 0.6% topical, 48 h) was 209 ± 40 pg/mL and the “Released PGE2 Mean ± Standard deviation” value ([2]; Lactic acid 0.6% topical, 48 h) was 197 ± 79 pg/mL. The “Released IL1-alpha Change” value [2, 10] was “+511%”, the “Released IL8 Change” value [2, 10] was “+169%” and the “Released PGE2 Change” value [2, 10] was “+584%”. The “C18:1 Mean ± SD, amount normalized to C16:0” value ([3]; Lactic acid 0.6% topical, 48 h) was 0.3880, the “C18:2 LA Mean ± SD, amount normalized to C16:0” value ([3]; Lactic acid 0.6% topical, 48 h) was 0.2130 and the “C20:4 AA Mean ± SD, amount normalized to C16:0” value ([3]; Lactic acid 0.6% topical, 48 h) was 0.0575. For the same compound, the “C18:1 Change” value [3, 10] was “+110%”, the “C18:2 LA Change” value [3, 10] was “+134%” and the “C20:4 AA Change” value [3, 10] was “+113%”. The Viability [4] was 66%, the “Intracellular IL1-RA Change vs. control” value [5] was “+1242%” and the “Intracellular IL1-alpha Change vs. control” value [5] was “+806%”. The “Intracellular IL8 Change vs. control” value [5] was “+390%”, the “Intracellular IL1-RA” value ([5]; 48 h) was 31243 pg/mg protein and the “Intracellular IL1-alpha” value ([5]; 48 h) was 794 pg/mg protein. The “Intracellular IL8” value ([5]; 48 h) was 52.1 pg/mg protein, the “Decrease in the expression level of involucrin” value [6] was −22% and the “Intracellular IL1-alpha Mean ± SD” value ([7]; Lactic acid 0.6% topical, 48 h) was 1044 ± 123.0 pg/mg protein. The “Intracellular IL1RA Mean ± SD” value ([7]; Lactic acid 0.6% topical, 48 h) was 25750 ± 1974 pg/mg protein, the “Intracellular IL8 Mean ± SD” value ([7]; Lactic acid 0.6% topical, 48 h) was 79.20 ± 7.715 pg/mg protein and the “Intracellular IL1-alpha Change” value [7, 10] was “+277%”. The “Intracellular IL1RA Change” value [7, 10] was “+394%”, the “Intracellular IL8 Change” value [7, 10] was “+113%” and the “Released IL1-alpha Change vs. control” value [8] was “+221%”. The “Released IL8 Change vs. control” value [8] was “+84%”, the “Released PGE2 Change vs. control” value [8] was “+207%” and the “Released VEGF Change vs. control” value [8] was “+156%”. The “Released IL1-alpha” value ([8]; 48 h, culture supernatant) was 23 ± 7 pg/mL, the “Released IL8” value ([8]; 48 h, culture supernatant) was 120 ± 18 pg/mL and the “Released PGE2” value ([8]; 48 h, culture supernatant) was 149 ± 36 pg/mL. The “Released VEGF” value ([8]; 48 h, culture supernatant) was 1109 ± 45 pg/mL, the ADCYAP1 gene expression [9] was 117 and the DEFB4A gene expression [9] was 6. It also gave an IL1A gene expression [9] of 240, an IL1B gene expression [9] of 195 and an IL1RN gene expression [9] of 144. The IL8 gene expression [9] was 649, the PLA2G2F2F gene expression [9] was 129 and the PTGS2 gene expression [9] was 182. It also gave a THBS1 gene expression [9] of 181, a TLR2 gene expression [9] of 54 and a TNF gene expression [9] of 105. The VEGF-A gene expression [9] was 138.

From US20200256853A1, “Models of Reconstructed Sensitive Skin” (Laboratoires Expanscience, priority 2017, published 2020)
